5 compounds from the NIST ThermoML archive (doi:10.1016/j.tca.2017.12.010) can be followed below.

Series [1] can be described thus: Boiling temperature at pressure P. To be noted: Liquid, DSC.
The conditions of series [2]: Liquid, DSC.

Structures are written as SMILES. Numbers after ± are expanded uncertainties.

Consider `O` [water], for which the “Boiling temperature at pressure P” value in series [1] (92.9 kPa) is 97.82 ± 1.6 °C; in series [1] (93 kPa), 97.84 ± 1.6 °C; in series [1] (93.5 kPa), 97.94 ± 1.6 °C; in series [1] (94.1 kPa), 98.06 ± 1.6 °C; in series [1] (101.3 kPa), 100.01 ± 1.6 °C; in series [1] (395 kPa), 143.21 ± 1.6 °C. The “Boiling temperature at pressure P” value was determined as 157.83 ± 1.6 °C in series [1] (585 kPa); 158.51 ± 1.6 °C in series [1] (592 kPa); 169.38 ± 1.6 °C in series [1] (791 kPa); 183.29 ± 1.6 °C in series [1] (1091 kPa); 194.26 ± 1.6 °C in series [1] (1392 kPa); 203.20 ± 1.6 °C in series [1] (1689 kPa). Further, the “Boiling temperature at pressure P” value in series [1] (2088 kPa) came to 213.26 ± 1.6 °C.
By vapor or sublimation pressure is commonly meant the pressure of vapour in equilibrium with the condensed phase. In the case of `CC(C)O` [propan-2-ol], in series [2] (355.71 K), the “vapor or sublimation pressure” value worked out at 101.3 ± 7.9 kPa.
For the compound `Cc1ccccc1` [toluene], the “vapor or sublimation pressure” value in series [2] (383.6 K) worked out at 101.3 ± 7.9 kPa.
On to `CO` [methanol], for which, in series [2] (337.78 K), the “vapor or sublimation pressure” value worked out at 101.3 ± 7.9 kPa.
For `C1CCCCC1` [cyclohexane], the “vapor or sublimation pressure” value in series [2] (353.82 K) is recorded as 101.3 ± 7.9 kPa.
